Molecules are shown by their SMILES.

Holding throughout (format): in vivo
Assay [1] concerns Blumeria graminis f. sp. tritici. Kind of assay: Test F: preventive spray on wheat seedlings, Blumeria graminis f. sp. tritici (wheat powdery mildew), visual disease rating. The note with it: topical, 192 h, 100 = 100% disease control, 0 = no disease control relative to controls. The source says:
General protocol for preparing test suspensions for Tests A-H: the test compounds were first dissolved in acetone in an amount equal to 3% of the final volume and then suspended at the desired concentration (in ppm) in acetone and purified water (50/50 mix by volume) containing 250 ppm of the surfactant Trem® 014 (polyhydric alcohol esters). The resulting test suspensions were then used in Tests A-F. Spraying a 40 ppm test suspension to the point of run-off on the test plants was the equivalent of a rate of 160 g/ha. Unless otherwise indicated, the rating values indicate a 40 ppm test suspension was used. The test suspension was sprayed to the point of run-off on wheat seedlings. The following day the seedlings were inoculated with a spore dust of Blumeria graminis f. sp. tritici (also known as Erysiphe graminis f. sp. tritici, the causal agent of wheat powdery mildew) and incubated in a growth chamber at 20° C. for 8 days, after which time visual disease ratings were made. Results for Tests A-F are given in Table A. In the Table, a rating of 100 indicates 100% disease control and a rating of 0 indicates no disease control (relative to the controls). A dash (-) indicates no test results.

The test system of the next assay is Septoria tritici. Kind of assay: Test D: preventive spray on wheat seedlings, Septoria tritici (wheat leaf blotch), visual disease rating. Particulars: Zymoseptoria tritici, topical, 504 h, 100 = 100% disease control, 0 = no disease control relative to controls. The text has this:
General protocol for preparing test suspensions for Tests A-H: the test compounds were first dissolved in acetone in an amount equal to 3% of the final volume and then suspended at the desired concentration (in ppm) in acetone and purified water (50/50 mix by volume) containing 250 ppm of the surfactant Trem® 014 (polyhydric alcohol esters). The resulting test suspensions were then used in Tests A-F. Spraying a 40 ppm test suspension to the point of run-off on the test plants was the equivalent of a rate of 160 g/ha. Unless otherwise indicated, the rating values indicate a 40 ppm test suspension was used. The test suspension was sprayed to the point of run-off on wheat seedlings. The following day the seedlings were inoculated with a spore suspension of Septoria tritici (the causal agent of wheat leaf blotch) and incubated in saturated atmosphere at 24° C. for 48 h, and then moved to a growth chamber at 20° C. for 19 days, after which time visual disease ratings were made. Results for Tests A-F are given in Table A. In the Table, a rating of 100 indicates 100% disease control and a rating of 0 indicates no disease control (relative to the controls). A dash (-) indicates no test results.

A further assay concerns Septoria nodorum. Kind of assay: Test C: preventive spray on wheat seedlings, Septoria nodorum (Septoria glume blotch), visual disease rating. Particulars: Parastagonospora nodorum, topical, 264 h, 100 = 100% disease control, 0 = no disease control relative to controls. The source says: General protocol for preparing test suspensions for Tests A-H: the test compounds were first dissolved in acetone in an amount equal to 3% of the final volume and then suspended at the desired concentration (in ppm) in acetone and purified water (50/50 mix by volume) containing 250 ppm of the surfactant Trem® 014 (polyhydric alcohol esters). The resulting test suspensions were then used in Tests A-F. Spraying a 40 ppm test suspension to the point of run-off on the test plants was the equivalent of a rate of 160 g/ha. Unless otherwise indicated, the rating values indicate a 40 ppm test suspension was used. The test suspension was sprayed to the point of run-off on wheat seedlings. The following day the seedlings were inoculated with a spore suspension of Septoria nodorum (the causal agent of Septoria glume blotch) and incubated in a saturated atmosphere at 20° C. for 48 h, and then moved to a growth chamber at 20° C. for 9 days, after which time visual disease ratings were made. Results for Tests A-F are given in Table A. In the Table, a rating of 100 indicates 100% disease control and a rating of 0 indicates no disease control (relative to the controls). A dash (-) indicates no test results.

In general, pest or weed control refers to how far the test organism was held down. Lower therefore signals a weak effect. Take `Cc1cc(F)c(Nc2c(-c3ccc(F)cc3Cl)c(C)nn2C)c(Br)c1` [Compound 1, N-(2-bromo-6-fluoro-4-methylphenyl)-4-(2-chloro-4-fluorophenyl)-1,3-dimethyl-1H-pyrazol-5-amine]: the pest or weed control at 40 µg/mL in assay [1] came out at 100%; in the assay on Septoria tritici, 100%; with Septoria nodorum it was 90%.
